Results: patent publication USRE35230E (priority 1994, dated 1996)

Test system: (R)-oxynitrilase
Experiment: Relative rates of dehydrocyanation of cyanohydrins by soluble (R)-oxynitrilase (initial rate studies)
Type: biochemical
Details: 0.21 mM cyanohydrin, dehydrocyanation relative to benzaldehyde cyanohydrin
Method: The following standardized assay was utilized to measure the activity of oxynitrilase set forth in the Examples which follow. A solution of enzyme was prepared in 0.1M (pH 5.5) citrate buffer. A 3-ml sample of enzyme solution was combined with 30 microliters of 0.21M benzaldehyde cyanohydrin and the rate of increase in absorbance at 250 nm recorded. Then, the same procedure was followed with a 3-ml sample of 0.1M (pH 5.5) citrate buffer to obtain the background, non-enzymatic, reaction. The activity in units/ml was calculated by subtracting the slope of the non-enzymatic reaction from the slope of the enzymatic reaction and converting the absorbance change with time to concentration change with time using a molar extinction coefficient of 13,200 M^-1 cm^-1.
Relative rates of dehydrocyanation of different cyanohydrins subjected to the action of the soluble catalyst (R)-oxynitrilase were determined from initial rate studies. A solution of (R)-oxynitrilase was combined with a 0.21 mM solution of cyanohydrin and the rate of increase of absorbance at the wavelength corresponding to the absorption maxima was monitored as described above in connection with the measurement of catalyst activity. The measured activity was calculated using the appropriate extinction coefficient for the corresponding aldehyde.

SMILES	Relative Rate
Cc1ccc(C(O)C#N)o1 (stereo not drawn) [5-Methylfurfural cyanohydrin]	2.8
N#CC(O)c1ccccc1 (stereo not drawn) [Benzaldehyde cyanohydrin, reference compound]	1.0
N#CC(O)C=Cc1ccccc1 (stereo not drawn) [Cinnamaldehyde cyanohydrin]	0.05
CC=CC(O)C#N (stereo not drawn) [Crotonaldehyde cyanohydrin]	0.90
N#CC(O)c1ccco1 (stereo not drawn) [Furfural cyanohydrin]	2.5
Cc1ccc(C(O)C#N)cc1 (stereo not drawn) [P-Tolualdehyde cyanohydrin]	0.45
N#CC(O)c1ccc2c(c1)OCO2 (stereo not drawn) [Piperonal cyanohydrin]	2.1
COc1cccc(C(O)C#N)c1 (stereo not drawn) [m-Anisaldehyde cyanohydrin]	0.19
COc1ccc(C(O)C#N)cc1 (stereo not drawn) [p-Anisaldehyde cyanohydrin]	0.17
CCc1ccc(C(O)C#N)cc1 (stereo not drawn) [p-Ethylbenzaldehyde cyanohydrin]	0.13

Test system: not given
Experiment: not given
Details: benzaldehyde cyanohydrin to benzaldehyde and hydrogen cyanide; cited from earlier work

SMILES	dehydrocyanation equilibrium constant [mM]
N#CC(O)c1ccccc1 (stereo not drawn) [Benzaldehyde cyanohydrin, reference compound]	5

Test system: not listed separately
Experiment: Permeability in supported-gas membrane system of FIG. 1
Details: both dehydrocyanation products approximately equal

SMILES	average permeability relative to the permeability of benzaldehyde cyanohydrin
O=Cc1ccccc1 [benzaldehyde]	roughly 700 times
